# Test results reported in publication PMC11375702, “Early Preclinical Studies of Ergosterol Peroxide and Biological Evaluation of Its Derivatives” (ACS Omega, 2024).
# Read-outs that look alike come from different tables or passages of the source.
# Key:
# [1] = Maximum tolerated dose (MTD) study, single oral dose; type: in vivo, mouse; conditions: for Gross pathology, External Abnormalities: No Abnormality Detected (number of mice) / Gross pathology, Internal Abnormalities: No Abnormality Detected (number of mice): 6 mice examined
# Description: The study was conducted according to published and acceptable experimental conditions reported.[53] Animal protocols approved by LSU#IACUCAM21065 and UCC# 037–2021–16–01-PHA-IBC. Briefly, male and female Balb/c mice were given a single oral dose administration of ergosterol peroxide to C57BL/6 female and male mice (5–8 weeks old), followed by 7 days postdose observations. Toxicity is defined as a 20% loss of body weight. The study comprised three groups for a toxicity phase including: one control and two EP-treated groups (G2 and G3), having 6 mice/sex/group. Mice from groups G2 (300 mg/kg BW) and G3 (500 mg/kg BW) were administered an EP uniform suspension (light yellow), once by oral gavage. The mice from the control group (G1) received a 1% v/v Tween 80 and 0.5% w/v NaCMC in the RO water suspension. The dosing volume was kept constant at 10 mL/kg for each mouse. Then, animals were euthanized, and organs (liver, lung, heart, and kidney) were collected to check global signs of toxicity. Parameters evaluated included observation for clinical signs, body weight, body weight gain, feed consumption, clinical chemistry, and gross pathology. The total animals per MTD was 36 mice.
# [2] = target: T1, CYP2C8 (Homo sapiens, UniProt P10632); assay: Microsomal CYP inhibition assay, CYP2C8; type: in vitro ADME; conditions: pooled human liver microsomes, probe amodiaquine
# T1 sequence (P10632 1-490): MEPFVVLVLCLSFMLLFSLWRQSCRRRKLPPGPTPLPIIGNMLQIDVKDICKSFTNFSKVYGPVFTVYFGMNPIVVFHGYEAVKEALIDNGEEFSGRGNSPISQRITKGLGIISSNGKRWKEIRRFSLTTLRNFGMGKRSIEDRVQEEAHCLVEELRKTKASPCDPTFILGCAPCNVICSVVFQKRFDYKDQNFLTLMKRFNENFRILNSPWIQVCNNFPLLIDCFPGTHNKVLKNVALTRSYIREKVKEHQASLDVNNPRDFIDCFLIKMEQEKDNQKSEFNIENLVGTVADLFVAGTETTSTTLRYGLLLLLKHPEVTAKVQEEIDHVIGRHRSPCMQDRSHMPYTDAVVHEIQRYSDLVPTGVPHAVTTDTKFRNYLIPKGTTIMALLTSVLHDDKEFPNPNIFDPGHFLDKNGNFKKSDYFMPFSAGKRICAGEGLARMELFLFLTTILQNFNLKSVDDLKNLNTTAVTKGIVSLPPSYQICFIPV
# Description: (§1) To assess potential cardiotoxicity, we performed the human ether-go-go-related gene (hERG) inhibition assay. […] Briefly, EP was tested at six concentrations (cumulative concentration–response). […] For hepatotoxicity determination, we performed the microsomal CYP inhibition assay. Briefly, EP was incubated at seven increasing concentrations with pooled human liver microsomes. […] The supernatants were analyzed by LC-MS/MS.
# [3] = target: T2, CYP3A4 (Homo sapiens, UniProt P08684); assay: Microsomal CYP inhibition assay, CYP3A4; type: in vitro ADME; conditions: pooled human liver microsomes
# T2 construct: from tissue; host or cells: pooled human liver microsomes
# Description: as §1
# T2 sequence (P08684 whole entry): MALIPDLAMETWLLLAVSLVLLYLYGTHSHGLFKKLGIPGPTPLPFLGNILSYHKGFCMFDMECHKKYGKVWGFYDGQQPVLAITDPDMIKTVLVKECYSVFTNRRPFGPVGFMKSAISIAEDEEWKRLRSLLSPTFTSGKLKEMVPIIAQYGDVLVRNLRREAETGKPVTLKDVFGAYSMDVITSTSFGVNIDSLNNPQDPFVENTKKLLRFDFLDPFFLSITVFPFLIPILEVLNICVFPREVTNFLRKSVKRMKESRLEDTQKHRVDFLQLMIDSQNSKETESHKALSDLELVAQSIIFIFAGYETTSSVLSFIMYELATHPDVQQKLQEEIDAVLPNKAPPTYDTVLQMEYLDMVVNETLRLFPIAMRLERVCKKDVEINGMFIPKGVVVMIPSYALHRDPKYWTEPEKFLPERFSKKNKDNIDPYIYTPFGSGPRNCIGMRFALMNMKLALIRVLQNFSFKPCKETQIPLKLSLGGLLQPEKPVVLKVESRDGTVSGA
smiles,measurement,setting,value
"CC(C)[C@@H](C)/C=C/[C@@H](C)[C@H]1CC[C@@H]2[C@]1(C)CC[C@H]1[C@]23C=C[C@]2(C[C@@H](O)CC[C@]12C)OO3 [Compound 2, Ergosterol peroxide]",decrease in albumin vs vehicle control,"[1]; 300 mg/kg (G2), male mice",6%
same,decrease in triglycerides vs vehicle control,"[1]; 500 mg/kg (G3), male mice",19%
same,MTD at 7 days,"[1]; both sexes, mouse, in vivo, single oral dose, male or female mice",> 500 mg/kg
same,"ALB, mean","[1]; female, 300 mg/kg",3.08 g/dL
same,"ALP, mean","[1]; female, 300 mg/kg",394.32 U/L
same,"ALT, mean","[1]; female, 300 mg/kg",44.99 U/L
same,"AST, mean","[1]; female, 300 mg/kg",88.20 U/L
same,"BUN, mean","[1]; female, 300 mg/kg",16.45 mg/dL
same,"CREA, mean","[1]; female, 300 mg/kg",0.21 mg/dL
same,"TGL, mean","[1]; female, 300 mg/kg",38.15 mg/dL
same,"Gross pathology, External Abnormalities: No Abnormality Detected (number of mice)","[1]; female, 300 mg/kg",6
same,"Body Weight, mean","[1]; female, 300 mg/kg, day 1",21.05 g
same,"Food Consumption, Average Feed Intake/ Animal","[1]; female, 300 mg/kg, day 1 to 4",12.3 g/Animal
same,"Body Weight, mean","[1]; female, 300 mg/kg, day 4",21.15 g
same,"Food Consumption, Average Feed Intake/ Animal","[1]; female, 300 mg/kg, day 4 to 7",12.2 g/Animal
same,"Body Weight, mean","[1]; female, 300 mg/kg, day 7",21.45 g
same,"ALB, mean","[1]; female, 500 mg/kg",3.03 g/dL
same,"ALP, mean","[1]; female, 500 mg/kg",400.51 U/L
same,"ALT, mean","[1]; female, 500 mg/kg",47.50 U/L
same,"AST, mean","[1]; female, 500 mg/kg",75.14 U/L
same,"BUN, mean","[1]; female, 500 mg/kg",17.63 mg/dL
same,"CREA, mean","[1]; female, 500 mg/kg",0.20 mg/dL
same,"TGL, mean","[1]; female, 500 mg/kg",30.51 mg/dL
same,"Gross pathology, External Abnormalities: No Abnormality Detected (number of mice)","[1]; female, 500 mg/kg",6
same,"Body Weight, mean","[1]; female, 500 mg/kg, day 1",21.27 g
same,"Food Consumption, Average Feed Intake/ Animal","[1]; female, 500 mg/kg, day 1 to 4",12.3 g/Animal
same,"Body Weight, mean","[1]; female, 500 mg/kg, day 4",21.17 g
same,"Food Consumption, Average Feed Intake/ Animal","[1]; female, 500 mg/kg, day 4 to 7",11.8 g/Animal
same,"Body Weight, mean","[1]; female, 500 mg/kg, day 7",21.53 g
same,"ALB, mean","[1]; male, 300 mg/kg",2.91 g/dL
same,"ALP, mean","[1]; male, 300 mg/kg",312.51 U/L
same,"ALT, mean","[1]; male, 300 mg/kg",34.83 U/L
same,"AST, mean","[1]; male, 300 mg/kg",47.80 U/L
same,"BUN, mean","[1]; male, 300 mg/kg",16.45 mg/dL
same,"CREA, mean","[1]; male, 300 mg/kg",0.17 mg/dL
same,"TGL, mean","[1]; male, 300 mg/kg",51.23 mg/dL
same,"Gross pathology, External Abnormalities: No Abnormality Detected (number of mice)","[1]; male, 300 mg/kg",6
same,"Gross pathology, Internal Abnormalities: No Abnormality Detected (number of mice)","[1]; male, 300 mg/kg",6
same,"Body Weight, mean","[1]; male, 300 mg/kg, day 1",21.85 g
same,"Food Consumption, Average Feed Intake/ Animal","[1]; male, 300 mg/kg, day 1 to 4",14.9 g/Animal
same,"Body Weight, mean","[1]; male, 300 mg/kg, day 4",22.28 g
same,"Food Consumption, Average Feed Intake/ Animal","[1]; male, 300 mg/kg, day 4 to 7",14.6 g/Animal
same,"Body Weight, mean","[1]; male, 300 mg/kg, day 7",23.03 g
same,"ALB, mean","[1]; male, 500 mg/kg",3.03 g/dL
same,"ALP, mean","[1]; male, 500 mg/kg",412.86 U/L
same,"ALT, mean","[1]; male, 500 mg/kg",54.07 U/L
same,"AST, mean","[1]; male, 500 mg/kg",91.50 U/L
same,"BUN, mean","[1]; male, 500 mg/kg",17.06 mg/dL
same,"CREA, mean","[1]; male, 500 mg/kg",0.17 mg/dL
same,"TGL, mean","[1]; male, 500 mg/kg",46.91 mg/dL
same,"Gross pathology, External Abnormalities: No Abnormality Detected (number of mice)","[1]; male, 500 mg/kg",6
same,"Gross pathology, Internal Abnormalities: No Abnormality Detected (number of mice)","[1]; male, 500 mg/kg",6
same,"Body Weight, mean","[1]; male, 500 mg/kg, day 1",22.62 g
same,"Food Consumption, Average Feed Intake/ Animal","[1]; male, 500 mg/kg, day 1 to 4",10.4 g/Animal
same,"Body Weight, mean","[1]; male, 500 mg/kg, day 4",22.70 g
same,"Food Consumption, Average Feed Intake/ Animal","[1]; male, 500 mg/kg, day 4 to 7",13.7 g/Animal
same,"Body Weight, mean","[1]; male, 500 mg/kg, day 7",22.27 g
same,clinical signs,"[1]; oral, 300 and 500 mg/kg, mice",no abnormal clinical signs
same,IC50,[2],9.9 µM
same,IC50,"[3]; probe midazolam, read-out: CYP3A4-Midazolam inhibition",> 25 µM
same,IC50,"[3]; probe testosterone, read-out: CYP3A4-Testos-terone inhibition",> 25 µM
